Laboratory results: patent US9212168B2 (priority 2011, dated 2015)

Key:
[1] = test system: HCV genotype 1b replicon; test: HCV genotype 1b replicon assay (Renilla luciferase readout); assay type: cell-based, hepatitis C virus; details: for EC50: Hepatitis C virus, read-out: Genotype 1b; for Genotype 1b: HCV genotype 1b replicon
Description: Assay 1: HCV Genotype 1b Replicon Assay
The HCV genotype 1b replicon cell line was obtained from Apath LLC (Brooklyn, N.Y.) (APC144; Huh7 cell background). This subgenomic replicon contains the N-terminus of the HCV core protein fused to the neomycin-resistance selectable marker. The EMCV IRES lies downstream and drives expression of humanized Renilla luciferase fused to the non-structural proteins NS3-NS5B. This cell line was used to determine compound potency using the luciferase activity readout as a measurement of compound inhibition of replicon levels.
Cells were grown at 37° C. in a 5% CO2 humidified incubator in DMEM (Invitrogen) with 10% FBS (HyClone), 1×NEAA (Invitrogen), 1× Pen-Strep (Invitrogen), and 500 μg/mL G418 (Invitrogen). On day 1 of the assay, cells were plated at 10,000 cells/well in white 96-well tissue culture plates (Costar) in 200 μL media lacking G418. Four hours later, once the cells have adhered, the media was removed and replaced with media (no G418) containing dose-responses of test compounds. Compounds were initially diluted in DMSO and then diluted another 200× in media to bring the final DMSO concentration down to 0.5%. The cells were incubated with test compounds for 48 hours. At the end of the incubation period, media and compound were removed from the plates and the luciferase activity was determined using Promega Renilla-Glo reagents.
To analyze the data, the luciferase activity was plotted vs. the compound concentration, and EC50 values were determined from a 4-parameter robust fit model with the GraphPad Prism software package (GraphPad Software, Inc., San Diego, Calif.). Results are expressed as the negative decadic logarithm of the EC50 value, pEC50.
Test compounds having a higher pEC50 value in this assay show greater inhibition of HCV genotype 1b replication.

[2] = test system: HCV genotype 1a replicon; test: HCV genotype 1a replicon assay (NS3 protease activity readout); assay type: cell-based, hepatitis C virus; details: for EC50: Hepatitis C virus, read-out: Genotype 1a, HCV genotype 1a replicon; for Genotype 1a: HCV genotype 1a replicon
How it was run: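 Genotype 1a subgenomic replicon cells (APC89, Huh7.5) were treated with compound dose-responses in G418-free medium, 0.5% DMSO final, for 48 or 72 hours at 37° C. Lysate NS3/4a protease activity measured with 15 μM FRET substrate, 20 min at 37° C (ex 340/em 509 nm); EC50 by 4-parameter fit.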

Row | Structure (SMILES) | EC50 [1] | EC50 [2] | Genotype 1b [1] | Genotype 1a [2]
1 | COC(=O)N[C@H](C(=O)N1[C@H](c2nc(-c3ccc(-c4ccc(C(=O)Nc5ccc(N6CCN(C(=O)C7CC7(C)C)C[C@H]6C)nc5)cc4OC(F)(F)F)cc3)c[nH]2)C[C@@H]2CCCC[C@@H]21)C(C)C (stereo partly drawn) [Example 6-12] | < 0.1 nM | 0.1 to 1 nM | – | –
2 | COC(=O)N[C@H](C(=O)N1C[C@@H](OC)C[C@H]1c1nc(-c2ccc(-c3ccc(NC(=O)c4ccc(N5CCN(C(=O)C(C)(C)C)C[C@H]5C)nc4)cc3OC(F)(F)F)cc2)c[nH]1)C(C)C [Example 27-8] | – | – | D (D represents pEC50>10 (EC50<0.1 nM)) | D (D represents pEC50>10 (EC50<0.1 nM))
3 | COCC1(C(=O)N2CCN(c3ccc(C(=O)Nc4cc(OC(F)(F)F)c(-c5ccc(-c6c[nH]c([C@@H]7C[C@H](OC)CN7C(=O)[C@@H](NC(=O)OC)C7CCOCC7)n6)cc5)cc4Cl)cn3)[C@H](C)C2)CC1 [Example 28-21] | – | – | D (D represents pEC50>10 (EC50<0.1 nM)) | D (D represents pEC50>10 (EC50<0.1 nM))
4 | COC(=O)N[C@H](C(=O)N1C[C@@H](C)C[C@H]1c1nc(-c2ccc(-c3cc(F)c(NC(=O)c4ccc(N5C[C@H](C)N(C(=O)C6CC6)C[C@H]5C)nc4)cc3OC(F)(F)F)cc2)c[nH]1)C(C)C [Example 1-15] | – | – | D (D represents pEC50>10 (EC50<0.1 nM)) | D (D represents pEC50>10 (EC50<0.1 nM))
5 | COC(=O)N[C@H](C(=O)N1C[C@@H](C)C[C@H]1c1nc(-c2ccc(-c3cc(Cl)c(NC(=O)c4ccc(N5CCN(C(=O)C(C)(C)C)C[C@H]5C)nc4)cc3OC(F)(F)F)cc2)c(F)[nH]1)C(C)C [Example 5-8] | < 0.1 nM | < 0.1 nM | – | –
6 | COC(=O)NC(C(=O)N1CC(C)CC1c1nc(-c2ccc(-c3cc(Cl)c(NC(=O)c4ccc(N5CCN(C(=O)C(C)(C)C)CC5C)nc4)cc3C(F)(F)F)cc2)c[nH]1)C1CC(C)OC(C)C1 (stereo not drawn) [Example 19-9] | – | – | D (D represents pEC50>10 (EC50<0.1 nM)) | D (D represents pEC50>10 (EC50<0.1 nM))
7 | COC(=O)NC(C(=O)N1C[C@@H](C)C[C@H]1c1nc(-c2ccc(-c3cc(Cl)c(NC(=O)c4ccc(N5CCN(C(=O)C(C)(C)C)C[C@H]5C)nc4)cc3OC(F)(F)F)cc2)c[nH]1)C1CCCOC1 (stereo partly drawn) [Example 13-38] | < 0.1 nM | < 0.1 nM | – | –
8 | CNC(=O)N1C[C@@H](C)N(c2ccc(C(=O)Nc3cc(OC(F)(F)F)c(-c4ccc(-c5c[nH]c([C@@H]6C[C@H](C)CN6C(=O)[C@@H](NC(=O)OC)C(C)C)n5)cc4)cc3F)cn2)C[C@@H]1C [Example 1-16] | – | – | D (D represents pEC50>10 (EC50<0.1 nM)) | D (D represents pEC50>10 (EC50<0.1 nM))
9 | COC(=O)N[C@H](C(=O)N1C[C@@H](C)C[C@H]1c1nc(-c2ccc(-c3cc(Cl)c(NC(=O)c4ccc(N5C[C@H](C)N(C(=O)C6CC6)C[C@H]5C)nc4)cc3OC(F)(F)F)cc2)c[nH]1)C(C)C [Example 1-43] | – | – | D (D represents pEC50>10 (EC50<0.1 nM)) | D (D represents pEC50>10 (EC50<0.1 nM))
10 | COC(=O)NC(C(=O)N1CC(C)CC1c1nc(-c2ccc(-c3ccc(NC(=O)c4ccc(N5CCN(C(=O)C(C)(C)C)CC5C)nc4)cc3OC(F)(F)F)cc2)c[nH]1)C1CCOCC1 (stereo not drawn) [Example 13-12] | – | – | D (D represents pEC50>10 (EC50<0.1 nM)) | D (D represents pEC50>10 (EC50<0.1 nM))
11 | COC(=O)NC(C(=O)N1C[C@@H](C)C[C@H]1c1nc(-c2ccc(-c3ccc(C(=O)Nc4ccc(N5CCN(C(=O)C(C)(C)C)C[C@H]5C)nc4)c(F)c3OC(F)(F)F)cc2)c[nH]1)C1CCOCC1 (stereo partly drawn) [Example 25-2] | < 0.1 nM | < 0.1 nM | – | –
12 | COC(=O)N[C@H](C(=O)N1C[C@@H](C)C[C@H]1c1nc(-c2ccc(-c3cc(Cl)c(NC(=O)c4ccc(N5CCN(C(=O)NN6CCOC6=O)C[C@H]5C)nc4)cc3OC(F)(F)F)cc2)c[nH]1)C(C)C [Example 12-17] | < 0.1 nM | < 0.1 nM | – | –
13 | COC(=O)N[C@H](C(=O)N1C[C@@H](C)C[C@H]1c1nc(-c2ccc(-c3cc(Cl)c(NC(=O)c4ccc(N5CCN(C(=O)c6ncc[nH]6)C[C@H]5C)nc4)cc3OC(F)(F)F)cc2)c[nH]1)C(C)C [Example 1-35] | – | – | D (D represents pEC50>10 (EC50<0.1 nM)) | D (D represents pEC50>10 (EC50<0.1 nM))
14 | COC(=O)N[C@H](C(=O)N1C[C@@H](C)C[C@H]1c1nc(-c2ccc(-c3cc(Cl)c(NC(=O)c4ccc(N5CCN(C(=O)C(C)(C)C)C[C@H]5C)nc4)cc3C(F)(F)F)cc2)c[nH]1)C(C)C [Example 1-61] | – | – | D (D represents pEC50>10 (EC50<0.1 nM)) | D (D represents pEC50>10 (EC50<0.1 nM))
15 | COC(=O)N[C@H](C(=O)N1C[C@@H](C)C[C@H]1c1nc(-c2ccc(-c3cc(Cl)c(NC(=O)c4ccc(N5CCN(C(=O)C(C)(C)C)C[C@@H]5C)nc4)cc3OC(F)(F)F)cc2)c[nH]1)C1CCOCC1 [Example 20-4] | – | – | D (D represents pEC50>10 (EC50<0.1 nM)) | D (D represents pEC50>10 (EC50<0.1 nM))
16 | COC(=O)N[C@H](C(=O)N1C[C@@H](OC)C[C@H]1c1nc(-c2ccc(-c3ccc(C(=O)Nc4ccc(N5CCN(C(=O)C(C)(C)C)C[C@H]5C)nc4)cc3)cc2)c[nH]1)C1CCOCC1 [Example 22-13] | – | – | D (D represents pEC50>10 (EC50<0.1 nM)) | D (D represents pEC50>10 (EC50<0.1 nM))
17 | COC(=O)N[C@H](C(=O)N1C[C@@H](OC)C[C@H]1c1nc(-c2ccc(-c3cc(Cl)c(NC(=O)c4ccc(N5C[C@H](C)N(C(=O)[C@]6(C)CCCN6C(=O)OC)C[C@H]5C)nc4)cc3OC(F)(F)F)cc2)c[nH]1)C1CCOCC1 [Example 28-18] | – | – | D (D represents pEC50>10 (EC50<0.1 nM)) | D (D represents pEC50>10 (EC50<0.1 nM))
18 | COC(=O)N[C@H](C(=O)N1C[C@@H](C)C[C@H]1c1nc(-c2ccc(-c3cc(Cl)c(NC(=O)c4ccc(N5CCN(C(=O)C(C)(C)CO)C[C@H]5C)nc4)cc3OC(F)(F)F)cc2)c[nH]1)[C@H](C)O [Example 13-17] | < 0.1 nM | < 0.1 nM | – | –
19 | COC(=O)N[C@H](C(=O)N1C[C@@H](OC)C[C@H]1c1nc(-c2ccc(-c3ccc(C(=O)Nc4ccc(N5CCN(C(=O)C(C)(C)C)C[C@H]5C)nc4)cc3OC(F)(F)F)cc2)c[nH]1)C1CCOCC1 [Example 22-12] | – | – | D (D represents pEC50>10 (EC50<0.1 nM)) | D (D represents pEC50>10 (EC50<0.1 nM))
20 | COC(=O)N[C@H](C(=O)N1C[C@@H](C(N)=O)C[C@H]1c1nc(-c2ccc(-c3cc(Cl)c(NC(=O)c4ccc(N5CCN(C(=O)C(C)(C)CO)C[C@H]5C)nc4)cc3OC(F)(F)F)cc2)c[nH]1)C(C)C [Example 15-3] | < 0.1 nM | < 0.1 nM | – | –
21 | COC(=O)N[C@H](C(=O)N1C[C@@H](C)C[C@H]1c1nc(-c2ccc(-c3ccc(C(=O)Nc4ccc(N5C[C@H](C)N(C(=O)C6CC6)C[C@H]5C)nc4)cc3OC(F)(F)F)cc2)c[nH]1)C(C)C [Example 4-16] | – | – | D (D represents pEC50>10 (EC50<0.1 nM)) | C (C represents pEC50 between and 9 and about 10, (EC50 between 1 nM and 0.1 nM))
22 | COC(=O)N[C@H](C(=O)N1C[C@@H](OC)C[C@H]1c1nc(-c2ccc(-c3cc(Cl)c(C(=O)Nc4ccc(N5CCN(C(=O)C(C)(C)C)C[C@H]5C)nc4)cc3OC(F)(F)F)cc2)c[nH]1)C1CCOCC1 [Example 22-16] | – | – | D (D represents pEC50>10 (EC50<0.1 nM)) | D (D represents pEC50>10 (EC50<0.1 nM))
23 | COC(=O)N[C@H](C(=O)N1C[C@@H](C)C[C@H]1c1nc(-c2ccc(-c3ccc(C(=O)Nc4ccc(N5CCN(C(=O)[C@H]6CC6(C)C)C[C@H]5C)nc4)cc3)cc2)c(Cl)[nH]1)C1CCOCC1 [Example 22-11] | – | – | D (D represents pEC50>10 (EC50<0.1 nM)) | D (D represents pEC50>10 (EC50<0.1 nM))
24 | COC(=O)N[C@H](C(=O)N1C[C@@H](OC)C[C@H]1c1nc(-c2ccc(-c3cc(Cl)c(NC(=O)c4ccc(N5C[C@H](C)N(C(=O)C(C)(C)C)C[C@H]5C)nc4)cc3OC(F)(F)F)cc2)c[nH]1)C1CCOCC1 [Example 28-7] | – | – | D (D represents pEC50>10 (EC50<0.1 nM)) | D (D represents pEC50>10 (EC50<0.1 nM))
